We go through 10 compounds from patent US11760751B2, “Benzo 2-azaspiro[4.4]nonane compound and use thereof” (HELIOEAST PHARMACEUTICAL CO., LTD., priority 2020, dated 2023).

Counter-ions that a name gives are not always drawn.

Data set [1] in a line: Pharmacokinetic evaluation in SD rats (intravenous and oral). In kind it is in vivo. The note with it: male, Sprague-Dawley, plasma, SD rat; for Cmax / bioavailability: intravenous 1.0 mg/kg; for Cmax: read-out: Peak concentration Cmax; for bioavailability: read-out: Bioavailability F; for clearance: read-out: Clearance rate CL; for Vd: read-out: Tissue distribution Vdss; for AUC(0-t): read-out: Area under the drug-time curve AUC0-last PO; for half-life: read-out: Half-life T1/2 (PO) (converted). The procedure: Test Embodiment 3: Pharmacokinetic Evaluation of Compound in Rats
Experimental objective: to test the pharmacokinetics of the compound in SD rats
Sprague Dawley rat (male, 200-300 g, 7-9 weeks old, Shanghai SLAC)
(§1) A standard protocol was used to test the pharmacokinetic characteristics of rodents after intravenous injection and oral administration of the compound. In the experiment, the candidate compound was prepared into a clear solution, and administrated to rats by single intravenous injection and oral administration. The vehicle for intravenous injection was a 5:95 DMSO and 10% hydroxypropyl cyclodextrin aqueous solution, and the vehicle for oral administration was a 0.5% w/v methylcellulose and 0.2% w/v tween 80 aqueous solution. Whole blood samples within 24 hours were collected, centrifuged at 3000 g for 15 minutes, and the supernatant was separated to obtain plasma samples. 4-fold volume of acetonitrile solution containing internal standard was added thereto to precipitate protein. The mixture was centrifuged, and the supernatant was taken, and an equal volume of water was added thereto. Then the mixture was centrifuged and the supernatant was taken for injection. The blood drug concentration was quantitatively analyzed by LC-MS/MS analysis method, and pharmacokinetic parameters, such as peak concentration, clearance rate, half-life, area under the drug-time curve and bioavailability, were calculated.

The target in data set [2] is T1, S1PR1 (Homo sapiens, UniProt P21453).
T1 construct: expressed in transfected cells
As to the kind of experiment: In vitro S1PR1 agonistic activity, PathHunter cell line, chemiluminescent detection. In kind it is cell-based. The following applies: for EC50: 90-180 min at 37° C.; for Emax: % activity vs maximum control ligand. As to the method: Test Embodiment 1: In Vitro Evaluation of the Agonistic Activity of the Compounds of the Present Disclosure on S1PR1
(§2) Experimental objective: to detect the agonistic activity of compounds on S1PR1
I. Cell Treatment • 1. A PathHunter cell line was thawed according to standard procedures; • 2. the cells were inoculated in a 20 μL 384-well microplate and incubated at 37° C. for appropriate time.
II. Agonist • 1. For agonist determination, cells were incubated with samples to be tested to induce a reaction; • 2. a storage solution to be tested was 5-fold diluted into a buffer; • 3. 5 μL of the 5-fold dilution was added to the cells and incubated at 37° C. for 90-180 minutes. The vehicle concentration was 1%.
III. Signal Detection • 1. 12.5 μL or 15 μL of PathHunter detection reagent at a volume ratio of 50% was added at a time, and then incubated at room temperature for 1 hour to generate a detection signal; • 2. the microplate was read with a PerkinElmer Envision™ instrument for chemiluminescent signal detection.
IV. Data Analysis • 1. Activity analysis of the compound was carried out by using CBIS data analysis kit (ChemInnovation, CAA); • 2. calculation formula: % activity=100%×(average test sample RLU−average vehicle RLU)/(average maximum control ligand−average vehicle RLU)

The nature of data set [3]: Pharmacokinetic evaluation in CD-1 mice (intravenous and oral). In kind it is in vivo. The following applies: male, mouse, plasma; for Cmax / bioavailability: intravenous 0.5 mg/kg; for Cmax: oral 2.0 mg/kg (route of Cmax not stated), read-out: Peak concentration Cmax; for bioavailability: oral 2.0 mg/kg, read-out: Bioavailability F; for clearance / Vd: intravenous injection 0.5 mg/kg (oral 2.0 mg/kg); for clearance: read-out: Clearance rate CL; for Vd: read-out: Tissue distribution Vdss; for AUC(0-t) / half-life: oral administration 2.0 mg/kg; for AUC(0-t): read-out: Area under the drug-time curve AUC0-last PO; for half-life: read-out: Half-life T1/2 (PO) (converted). As to the method:
Test Embodiment 4: Pharmacokinetic Evaluation of Compound in Mice
Experimental objective: to test the pharmacokinetics of the compound in CD-1 mice
CD-1 mice (male, 20-40 g, 6-10 weeks old, Shanghai BK)
as §1, with “The standard” for “A standard”, “clear solution or a suspension,” for “clear solution,”, “to two mice” for “to rats”, “hydroxypropyl β-cyclodextrin” for “hydroxypropyl cyclodextrin”, “at 3200” for “at 3000”, “for 10” for “for 15”

The target of data set [4] is T1, S1PR1. As to the kind of experiment: In vitro S1PR1 agonistic activity, U2OS-EDG1 cells, LiveBLAzer-FRET B/G (CCF4-AM). In kind it is cell-based. The following applies: for EC50: 20 hours incubation; for Emax: % Effect, read-out: Emax. The procedure: Test Embodiment 2: In Vitro Evaluation of the Agonistic Activity of the Compounds of the Present Disclosure on S1PR1
as §2
I. Cell Treatment • 1. The cells U2OS-EDG1 (batch number: Invitrogen-K1520) were taken out from a liquid nitrogen tank and quickly thawed in a 37° C. water bath; • 2. the cell suspension was aspirated into a 15 mL centrifuge tube, resuspended in 5 mL of pre-warmed culture medium, and centrifuged at 1000 rpm for 5 min; • 3. the supernatant was discarded, 10 mL of culture medium was resuspended, transferred to a T75 culture flask, and cultured in a 37° C., 5% CO2 incubator.
II. Agonist Assay • 1. Compounds were diluted to working concentrations, and the compounds were 3-fold diluted by Echo 555 (manufacturer: Labcyte) to 10 concentrations, and then 200 nL of each concentration were transferred to cell plates, and centrifuged at 1000 rpm for 15 seconds; • 2. the culture medium in the culture flask was aspirated, and 4 mL of Dulbecco's Phosphate Buffered Saline (DPBS, supplier: Coring, catalog number: 21-031-CVR, batch number: 03318006) was added thereto to wash off the residual serum, and 2 mL of trypsin was added thereto, and incubated in a 37° C. incubator for 2 minutes to digest the cells, and then 10 mL of seed plate culture medium was added to resuspend the cells, and 0.6 mL of the cell suspension was taken out for counting; • 3. the cell density was adjusted with the seed plate culture medium to 1.88E+05 cells/mL, 40 μL was seeded per well (7500\well), and 40 μL of FreeStyle™ Expression culture medium was added around the cell plate, left to stand for 15 minutes at room temperature, and incubated at 37° C. with 5% CO2 for 20 hours.
III. Signal Detection • 1. LiveBLAzer™-FRET B/G Substrate (CCF4-AM) detection reagent was configured according to the instructions; • 2. 8 μL of 6×Substrate Mixture was added to each well of the cell plate, centrifuged at 1000 rpm for 15 seconds, attached with a membrane, incubated at 23° C. for 2 hours, and detected by Envision […].
IV. Data Analysis • 1. The original data was converted into % Effect by using the equation, and the value of EC50 could be obtained by curve fitting with four parameters [obtained in the “log(agonist) vs. response—Variable slope” mode in GraphPad Prism]; • 2. calculation formula: Ratio=(460 nm−blank)/(535 nm−blank) % Effect=(SampleRatio−Ave LCRatio)/(Ave HCRatio−Ave LCRatio)*100%

Where [5] appears, read: oral 2.0 mg/kg (route of Cmax not stated).
Where [6] appears, read: intravenous injection 1.0 mg/kg (oral 2.0 mg/kg).
Where [7] appears, read: intravenous injection 1.0 mg/kg (oral 3.0 mg/kg).

T1 sequence (P21453 whole entry): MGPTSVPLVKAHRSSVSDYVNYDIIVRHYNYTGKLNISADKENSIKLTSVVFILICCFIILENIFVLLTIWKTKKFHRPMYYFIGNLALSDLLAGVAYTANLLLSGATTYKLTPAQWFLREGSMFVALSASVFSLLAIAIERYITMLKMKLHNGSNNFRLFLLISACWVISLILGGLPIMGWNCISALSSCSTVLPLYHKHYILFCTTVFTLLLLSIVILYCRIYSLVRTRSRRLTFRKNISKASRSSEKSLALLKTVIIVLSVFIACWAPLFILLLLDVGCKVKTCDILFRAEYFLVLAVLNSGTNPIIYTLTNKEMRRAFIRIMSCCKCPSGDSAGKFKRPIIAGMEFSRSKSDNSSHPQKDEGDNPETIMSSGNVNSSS

As a reminder, the bioavailability is dose-corrected exposure relative to a reference, in per cent. As usually defined, the EC50 is the concentration at which the effect is half-maximal. Read a low EC50 as an effect from little substance. In general, Emax refers to the greatest response seen or fitted, relative to the assay's reference. For `COc1cc(-c2nc(-c3cccc4c3CCC43CCN(CC4(C(=O)O)CC4)C3)no2)cc(C2CCCC2)n1` (centres unmarked) [Compound 40], the Cmax in data set [1] (setting [5]) amounted to 357 ng/mL. Besides, in data set [1] (oral 2.0 mg/kg), the bioavailability was found to be 63.9%. Besides, in data set [1] (setting [6]), the clearance turned out to be 5.47 mL/min/kg and the Vd came to 5.99 L/kg. Also, in data set [1] (oral administration 2.0 mg/kg), the AUC(0-t) amounted to 7.14 µM·h and the half-life was 8.83 h. On S1PR1 [2], this compound registered an EC50 of 2.82 nM and a maximal effect (Emax) of 102%.

On S1PR1 [2], `CC(C)Oc1ncc(-c2nc(-c3cccc4c3CCC43CCN(C(=O)CO)C3)no2)cc1C#N` (centres unmarked) [Compound 8] came in with an EC50 of 0.188 nM and a maximal response (Emax) of 96.8%. Moreover, in data set [3], the Cmax amounted to 2280 ng/mL, the bioavailability worked out at 80.3%, the clearance amounted to 3.58 mL/min/kg and the Vd is 0.816 L/kg. For the same compound, in data set [3], the AUC(0-t) amounted to 16.3 µM·h and the half-life was 2.9 h.

On to `N#Cc1cc(-c2nc(-c3cccc4c3CCC43CCN(CC4(C(=O)O)CC4)C3)no2)ccc1OC1CCCC1` (centres unmarked) [Hydrochloride of compound 31], for which, at S1PR1 [4], it took 0.456 nM to reach a half-maximal effect (EC50) and the Emax was determined as 101%.

`CC(C)Oc1ccc(-c2nc(-c3cccc4c3CCC43CCN(C(=O)[C@@H](O)CO)C3)no2)cc1C#N` (some centres unmarked) [Compound 45]: in data set [1] (setting [5]), the Cmax turned out to be 1180 ng/mL. For the same compound, the bioavailability in data set [1] (oral 2.0 mg/kg) was found to be 59.2%. In addition, in data set [1] (setting [6]), the clearance came out at 1.59 mL/min/kg and the Vd is 1.94 L/kg. Also, in data set [1] (oral administration 2.0 mg/kg), the AUC(0-t) was 22.9 µM·h and the half-life was 13.2 h. At S1PR1 [2], this compound had an EC50 of 0.29 nM and an Emax of 126%.

`CC(C)Oc1ccc(-c2nc(-c3cccc4c3CCC43CCN(C(=O)CO)C3)no2)cc1C#N` (centres unmarked) [Compound 1]: the Cmax in data set [1] (oral 3.0 mg/kg (route of Cmax not stated)) turned out to be 1140 ng/mL. Besides, in data set [1] (oral 3.0 mg/kg), the bioavailability came to 83.1%. Besides, in data set [1] (setting [7]), the clearance was found to be 5.97 mL/min/kg and the Vd was found to be 2.66 L/kg. In data set [1] (oral administration 3.0 mg/kg), the AUC(0-t) stood at 11.5 µM·h and the half-life is 4.91 h. At S1PR1 [2], this compound yielded an EC50 of 0.137 nM and an Emax of 122%. For the same compound, in data set [3], the Cmax came to 615 ng/mL, the bioavailability was 70.1%, the clearance came to 18.2 mL/min/kg and the Vd came out at 2.17 L/kg. Also, in data set [3], the AUC(0-t) came out at 2.74 µM·h and the half-life is 3.61 h.

Consider `CC(C)Oc1ncc(-c2nc(-c3cccc4c3CCC43CCN(CC4(C(=O)O)CC4)C3)no2)cc1C#N` (centres unmarked) [Hydrochloride of compound 32], for which, on S1PR1 [4], it took 1.45 nM to reach a half-maximal effect (EC50) and the maximal response (Emax) was 95.9%.

Regarding `CC(C)Oc1ccc(-c2nc(-c3cccc4c3CCC43CCN(CC4(C(=O)O)CC4)C3)no2)cc1C(F)F` (centres unmarked) [Hydrochloride of compound 29], on S1PR1 [4], a half-maximal response (EC50) required 0.0211 nM and the Emax is 91.5%.

With `CC(C)Nc1ncc(-c2nc(-c3cccc4c3CCC43CCN(CC4(C(=O)O)CC4)C3)no2)cc1C#N` (centres unmarked) [Hydrochloride of compound 33], on S1PR1 [4], the concentration giving a half-maximal response (EC50) worked out at 10.2 nM and the Emax is 99.9%.

Consider `CC(C)Oc1ccc(-c2nc(-c3cccc4c3CCC43CCN(CC4(C(=O)O)CC4)C3)no2)cc1Br` (centres unmarked) [Hydrochloride of compound 30], for which, on S1PR1 [4], the EC50 worked out at 0.132 nM and the Emax turned out to be 103%.

`N#Cc1cc(-c2nc(-c3cccc4c3CCC43CCN(CC4(C(=O)O)CC4)C3)no2)ccc1OC(F)F` (centres unmarked) [Hydrochloride of compound 34]: at S1PR1 [4], the concentration for a half-maximal effect (EC50) was determined as 6.07 nM and the Emax was 94.9%.
